{"source": "patent US20110020931A1", "about": "“PROLIFERATION PROMOTING AGENT FOR NEURAL STEM CELLS” (KYOWA HAKKO KIRIN CO., LTD., priority 2008, published 2011)", "assay_type_in_all_cases": "cell-based", "key": {"[1]": {"test_system": "Rat adult neural stem cell line ANSC-7 cells", "assay": "Test Example 2: Proliferation promoting activity on neural stem cells (2), viable cell counting reagent SF absorbance", "details": "96 hours culture, absorbance 490 nm, read-out: proliferation promoting activity (relative value, negative control = 100%); for activity at 0.32 µM: 0.32 μmol/L; for activity at 1 µM: 1.0 μmol/L", "experimental": "(§1) Rat adult neural tem cell line ANSC-7 cells prepared by the method described in the following Reference Example 1 were suspended in the assay medium at a density of 1.7×10^5 cells/mL; inoculated in 0.1 mL portion in a 96 well plate (manufactured by Costar) of which surface was processed with polyornithine and laminin; and cultured overnight at 37° C. under an atmosphere of 5% CO2. Thereafter, 50 μl of the culture supernatant was removed, and 50 μl of a test compound which was serially diluted with the assay medium to 2 times of the final concentration or DMSO (negative control) was added to each well. After the culturing for 96 hours, 10 μl per well of a viable cell counting reagent SF (manufactured by Nacalai Tesque) was added to the culture. After culturing at 37° C. for 3 hours in a 5% CO2 incubator and subsequent stirring for 1 minute, absorbance at 490 nm (control wavelength 655 nm) was measured using a microplate spectrophotometer Emax (manufactured by Molecular Device). By regarding the measured value of well to which the cells were not inoculated as 0%, and the measured value of negative control as 100%, relative values in the test compound addition group were calculated.\n(§2) After putting a 7-week-old Sprague Dawley Rat to sleep by ether anesthesia and subsequent decapitation, the skull was cut open from the parietal region to extract the brain. Under a microscope, tissues including circumventricular region were isolated from the extracted brain by using ophthalmic scissors and tweezers. The tissues including circumventricular region were cut into fragments of about 1 mm^3 using ophthalmic scissors and scalpels and then subjected to 30 minutes of digestion reaction at 37° C. in 5 mL of Hanks' buffer containing 2.5 U/mL of papain, 250 U/mL of DNase (all manufactured by Worthington, Freehold, N.J.) and 1 U/mL of a neutral protease (Dispase, manufactured by Boehringer-Mannheim Corp.) (HBSS buffer, manufactured by Invitrogen). The mixture of cells and tissues obtained by the reaction was washed three times with DMEM (manufactured by Invitrogen) containing 10% fetal bovine serum (manufactured by Hyclone) and then dissolved in the DMEM containing 10% fetal bovine serum, followed by removing the undigested materials using a nylon mesh of 10 μm.\n(§3) The thus obtained cells crude extract was cultured overnight on a culture dish of 10 cm, in an incubator of 37° C. using DMEM/F12 medium (manufactured by Invitrogen) containing 10% fetal bovine serum. On the next day, the medium was replaced with DMEM/F12 containing 1% of N-2 additives (manufactured by Invitrogen) and 20 ng/mL of FGF 2 (manufactured by Pepro Tech) and the culturing was started. Once in 3 days, half of the medium was replaced with new DMEM/F12 containing 1% of N-2 additives and 20 ng/mL of FGF 2 and the culturing was continued.\n(§4) When a small colony consisted of small cells was formed, it was treated with 1% trypsin for 30 seconds to 1 minute, and the cells detached were harvested. The harvested cells were inoculated on a multiple well culture dish (manufactured by Fisher Scientific) which had been coated at room temperature overnight using 10 μg/mL of polyornithine (manufactured by Sigma) and at 37° C. overnight using 5 μg/mL of mouse EHS tumor-derived laminin (Becton Dickinson), and the culturing was continued.\n(§5) By continuing the above-mentioned culturing, small cells having small protrusion and thickness were concentrated. The cells were used as adult neural stem cells in the above-mentioned tests (Test Examples 1 to 3)."}, "[2]": {"test_system": "Rat adult neural stem cell line ANSC-7 cells", "assay": "Test Example 3: Proliferation promoting activity on neural stem cells (3), same manner as Test Example 2", "details": "96 h; for activity at 3.2 µM: 3.2 μmol/L; for activity at 0.001 µM: 1 nmol/L; for activity at 0.01 µM: 10 nmol/L", "experimental": "as §1\nEach of the tests was carried out in the same manner as in Test Example 2.\nas §2, §3, §4, §5"}, "[3]": {"test_system": "Rat adult neural stem cell line ANSC-7 cells", "assay": "Test Example 1: Proliferation promoting activity on neural stem cells (1), Hoechst 33342 nucleus staining fluorescence", "details": "96 hours culture, nucleus-stain fluorescence, read-out: proliferation promoting activity (relative value, negative control = 100%); for activity at 0.32 µM: 0.32 μmol/L; for activity at 1 µM: 1.0 μmol/L", "experimental": "Rat adult neural stem cell line ANSC-7 cells prepared by the method described in the following Reference Example 1 were suspended in DMEM/F12 medium (manufactured by Invitrogen) supplemented with N-2 additives [5 μg/mL insulin (manufactured by Sigma), 100 μg/mL bovine apotransferrin (manufactured by Sigma), 6.3 ng/mL progesterone (manufactured by Sigma), 1.6 μg/mL putrescine (manufactured by Sigma) and 5.2 ng/mL sodium selenate (manufactured by Sigma)] and an antibiotics mixed liquid [0.05 U/mL penicillin and 0.05 μg/mL streptomycin (manufactured by Invitrogen)] (to be referred to as assay medium hereinafter), at a density of 1.7×10^5 cells/mL; inoculated at 0.1 mL in a 96 well plate (manufactured by Costar) of which surface was processed with polyornithine and laminin; and cultured overnight at 37° C. under an atmosphere of 5% CO2. Thereafter, 50 μl of the culture supernatant was removed, and 50 μl of a test compound which was serially diluted with the assay medium to 2 times of the final concentration or DMSO (negative control) was added to each well. After the culturing for 96 hours, 50 μl of the culture supernatant was removed, and 50 μl of a 15% neutral buffered formalin liquid (manufactured by Wako Pure Chemical Industries, Ltd.) cooled to be 4° C. was added to each well and allowed to stand for 1 hour. Thereafter, by washing twice using PBS containing 0.3% Triton X-100 (manufactured by Nacalai Tesque) (hereinafter TBST), 50 μl of Hoechst 33342 (manufactured by Nacalai Tesque) adjusted to 3.3 μmol/L with 5% skim milk solution diluted with PBS containing 0.5% Triton X-100 was added to each well and the nucleus was stained overnight at 4° C. in the dark. After washing twice with 100 μl/well of TBST and then once with PBS and subsequently soaking in 100 μl/well of PBS, fluorescence intensity of the nucleus-stained cells was measured using a fluorometer FDSS 6000 (Hamamatsu Photonics K.K.). By regarding the measured value of well to which the cells were not inoculated as 0%, and the measured value of negative control as 100%, relative values in the test compound addition group were calculated.\nas §2, §3\nWhen a small colony consisted of small cells was formed, it was treated with 1% trypsin for 30 seconds to 1 minute, and the cells detached were harvested. […]"}, "[4]": {"details": "same manner as Test Example 2, read-out: proliferation promoting activity (relative value, negative control = 100%)"}}}
{"smiles": "C=C(CCC(C)(O)C1CC(O)C2C3=CCC4CC(O)CCC4(C)C3CCC21C)C(C)C", "note": "(stereo not shown) [Compound J]", "values": [{"measurement": "activity at 3.2 µM", "setting": "[1]; 3.2 μmol/L", "result": "≥ 125", "unit": "%"}]}
{"smiles": "COC(C)(C)/C=C/c1cccc2c3c([nH]c12)C(C)(C)C1CC24CCCN2CC1(C3)NC4=O", "note": "(stereo not shown) [Compound M]", "values": [{"measurement": "activity at 0.32 µM", "setting": "[2]; read-out: proliferation promoting activity (relative value, negative control = 100%)", "result": 120, "unit": "%"}]}
{"smiles": "C=C(CCC(C)(O)C1CC(O)C2=C3C(O)CC4CC(O)CCC4(C)C3CCC21C)C(C)C", "note": "(stereo not shown) [Compound Y]", "values": [{"measurement": "activity at 3.2 µM", "setting": "[2]; [4]", "result": 120, "unit": "%"}]}
{"smiles": "C=C(CCC(C)(O)C1CCC2C3=CCC4CC(O)CCC4(C)C3CCC21C)C(C)C", "note": "(stereo not shown) [Compound C]", "values": [{"measurement": "activity at 0.32 µM", "setting": "[1]", "result": "≥ 130", "unit": "%"}, {"measurement": "activity at 0.32 µM", "setting": "[3]", "result": "≥ 150", "unit": "%"}]}
{"smiles": "C=C(CCC1(C)OC2OC3CC1C21CCC2C4(C)CCC(=O)CC4CC4OC42C31)C(C)C", "note": "(stereo not shown) [Compound A2]", "values": [{"measurement": "activity at 0.32 µM", "setting": "[3]", "result": "≥ 160", "unit": "%"}]}
{"smiles": "C=C(CCC(C)C1CCC2C3=C(CCC21C)C1(C)CCC(O)CC1CC3=O)C(C)C", "note": "(stereo not shown) [Compound F]", "values": [{"measurement": "activity at 1 µM", "setting": "[1]", "result": "≥ 130", "unit": "%"}, {"measurement": "activity at 1 µM", "setting": "[3]", "result": "≥ 140", "unit": "%"}]}
{"smiles": "CC(C)C(C)/C=C/C(C)C1CCC2/C(=C/C(=O)OC3CCC(C)(O)C(=O)C3)C(=O)CCC21C", "note": "(stereo not shown) [Compound BB]", "values": [{"measurement": "activity at 3.2 µM", "setting": "[2]; [4]", "result": 120, "unit": "%"}]}
{"smiles": "CC(C)=CC(=O)c1cccc2c3c([nH]c12)C(C)(C)C1CC24CCCN2CC1(C3)NC4=O", "note": "(stereo not shown) [Compound N]", "values": [{"measurement": "activity at 1 µM", "setting": "[2]; 1 μmol/L, same manner as Test Example 2, read-out: proliferation promoting activity (relative value, negative control = 100%)", "result": 120, "unit": "%"}]}
{"smiles": "C=C(CCC(C)C1CC=C2C3=C(CCC21C)C1(C)CCC(O)CC1C(=O)O3)C(C)C", "note": "(stereo not shown) [Compound V]", "values": [{"measurement": "activity at 0.001 µM", "setting": "[2]; [4]", "result": "≥ 120", "unit": "%"}]}
{"smiles": "C=C(CCC(C)C1CCC2C3C(=O)CC4CC(O)CCC4(C)C3CCC12C)C(C)C", "note": "(stereo not shown) [Compound W]", "values": [{"measurement": "activity at 0.01 µM", "setting": "[2]; [4]", "result": "≥ 120", "unit": "%"}]}
{"smiles": "C=C(CCC(=C)C1CC(O)C2C3=CCC4CC(=O)CCC4(C)C3CCC12C)C(C)C", "note": "(stereo not shown) [Compound K]", "values": [{"measurement": "activity at 1 µM", "setting": "[1]", "result": "≥ 130", "unit": "%"}]}
{"smiles": "C=C(CCC(C)C1CCC2C3=C(CCC21C)C1(C)CCC(O)CC1C(=O)O3)C(C)C", "note": "(stereo not shown) [Compound E]", "values": [{"measurement": "activity at 0.32 µM", "setting": "[1]", "result": "≥ 130", "unit": "%"}, {"measurement": "activity at 0.32 µM", "setting": "[3]", "result": "≥ 150", "unit": "%"}]}
{"smiles": "CC(C)C(C)/C=C/C(C)C1CCC2/C(=C/C(=O)OC3(C)CCC(O)CC3=O)C(=O)CCC21C", "note": "(stereo not shown) [Compound AA]", "values": [{"measurement": "activity at 3.2 µM", "setting": "[2]; [4]", "result": 120, "unit": "%"}]}
{"smiles": "C=C(/C=C/C(C)C1CCC2C3C(=O)CC4CC(O)CCC4(C)C3CCC12C)C(C)C", "note": "(stereo not shown) [Compound X]", "values": [{"measurement": "activity at 0.01 µM", "setting": "[2]; [4]", "result": "≥ 120", "unit": "%"}]}
{"smiles": "C=C(CCC1(C)OC2OC3CC1C21CCC2C(=CC=C4CC(O)CCC42C)C31)C(C)C", "note": "(stereo not shown) [Compound L]", "values": [{"measurement": "activity at 0.32 µM", "setting": "[1]", "result": "≥ 130", "unit": "%"}]}
{"smiles": "C=C(CCC(=C)C1CC(O)C2C3=CCC4CC(O)CCC4(C)C3CCC12C)C(C)C", "note": "(stereo not shown) [Compound D]", "values": [{"measurement": "activity at 1 µM", "setting": "[1]", "result": "≥ 130", "unit": "%"}, {"measurement": "activity at 1 µM", "setting": "[3]", "result": "≥ 140", "unit": "%"}]}
{"smiles": "C=C(CCC1(C)OC2OC3CC1C21CCC2C4(C)CCC(OC(C)=O)CC4CC4OC42C31)C(C)C", "note": "(stereo not shown) [Compound A1]", "values": [{"measurement": "activity at 0.32 µM", "setting": "[3]", "result": "≥ 160", "unit": "%"}]}
{"smiles": "C=C(CCC(C)C1CCC2=C3OC(=O)C4CC(O)CCC4(C)C3CCC21C)C(C)C", "note": "(stereo not shown) [Compound U]", "values": [{"measurement": "activity at 0.001 µM", "setting": "[2]; [4]", "result": "≥ 120", "unit": "%"}]}
{"smiles": "C=C(CCC1(C)OC2OC3CC1C21CCC2C4(C)CCC(O)CC4CCC2(O)C31)C(C)C", "note": "(stereo not shown) [Compound A5]", "values": [{"measurement": "activity at 0.32 µM", "setting": "[3]", "result": "≥ 160", "unit": "%"}]}
{"smiles": "C=C(CCC1(C)OC2OC3CC1C21CCC2C(=CCC4CC(O)CCC42C)C31)C(C)C", "note": "(stereo not shown) [Compound B]", "values": [{"measurement": "activity at 1 µM", "setting": "[3]", "result": "≥ 140", "unit": "%"}]}
{"smiles": "C=C(CCC1(C)OC(=O)C23CCC4C5(C)CCC(O)CC5CC5OC54C2C(O)CC13)C(C)C", "note": "(stereo not shown) [Compound H]", "values": [{"measurement": "activity at 1 µM", "setting": "[1]", "result": "≥ 130", "unit": "%"}]}
{"smiles": "C=C(CCC1(C)OC2OC3CC1C21CCC2C4(C)CCC(O)CC4CC4OC42C31)C(C)C", "note": "(stereo not shown) [Compound A]", "values": [{"measurement": "activity at 0.32 µM", "setting": "[1]", "result": "≥ 130", "unit": "%"}, {"measurement": "activity at 0.32 µM", "setting": "[3]", "result": "≥ 150", "unit": "%"}]}
{"smiles": "CC(C)C(C)CCC1(C)OC2OC3CC1C21CCC2C4(C)CCC(O)CC4CC4OC42C31", "note": "(stereo not shown) [Compound A3]", "values": [{"measurement": "activity at 0.32 µM", "setting": "[3]", "result": "≥ 160", "unit": "%"}]}
